Experiment [1] relates to KO-52 cells. Briefly: Proliferation assay (spheroid growth, 8 days), KO-52 control cell line. The experiment is classed as cell-based, human. Conditions: Homo sapiens, […], read-out: spheroid assay_OneTime KO-52 IC50. The essentials:
(§1)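 Cells were seeded at 200 (MOLM14, OCI-AML3) or 300 (KO-52) per well in ultra-low attachment round-bottom plates with compounds at several concentrations, 0.3% DMSO, and grown 8 days at 37° C. Spheroid confluence was imaged on day 8; IC50 came from a variable-slope fit normalized to DMSO and high-dose reference compound.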

For experiment [2], the system named is MEIS1 mRNA. The experiment is described as follows: MEIS1 mRNA expression assay (Quantigene Singleplex) in MOLM14 cells.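 Also: MEIS1 transcript levels read by probe hybridization and normalized to RPL28 mRNA, with IC50 fitted to fold changes across a rising compound concentration series.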 As to conditions: Homo sapiens, MOLM-14, 48 h, 48 hours incubation. In kind it is cell-based, human.
Experiment [3] has as its target menin/MLL (terbium chelate-labeled menin, FITC-MBM1 peptide) (Homo sapiens (Human), UniProt O00255). Briefly: Menin/MLL homogenous time-resolved fluorescence (HTRF) assay.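 Also: IC50 from percent inhibition of HTRF signal, normalized between wells without competitor and wells with a saturating competitor that displaces FITC-MBM1 from His-tagged menin.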 The experiment is classed as binding. As to conditions: HTRF-30 min incubation IC50, 30 min incubation. Background: TR-FRET usually uses a lanthanide donor and a delayed reading to cut background.

The target of experiment [4] is hERG (Homo sapiens (Human), UniProt Q12809). Briefly: Effect on membrane potassium current IKr in hERG-transfected HEK293 cells, Protocol 2 (SyncroPatch 384PE). The experiment is classed as cell-based. As to conditions: Protocol 2, hERG-transfected HEK293 cells. As for the experimental part: 8) Effect on the Membrane Potassium Current IKr in hERG Transfected Cell Lines
Chain of hERG (Q12809 whole entry): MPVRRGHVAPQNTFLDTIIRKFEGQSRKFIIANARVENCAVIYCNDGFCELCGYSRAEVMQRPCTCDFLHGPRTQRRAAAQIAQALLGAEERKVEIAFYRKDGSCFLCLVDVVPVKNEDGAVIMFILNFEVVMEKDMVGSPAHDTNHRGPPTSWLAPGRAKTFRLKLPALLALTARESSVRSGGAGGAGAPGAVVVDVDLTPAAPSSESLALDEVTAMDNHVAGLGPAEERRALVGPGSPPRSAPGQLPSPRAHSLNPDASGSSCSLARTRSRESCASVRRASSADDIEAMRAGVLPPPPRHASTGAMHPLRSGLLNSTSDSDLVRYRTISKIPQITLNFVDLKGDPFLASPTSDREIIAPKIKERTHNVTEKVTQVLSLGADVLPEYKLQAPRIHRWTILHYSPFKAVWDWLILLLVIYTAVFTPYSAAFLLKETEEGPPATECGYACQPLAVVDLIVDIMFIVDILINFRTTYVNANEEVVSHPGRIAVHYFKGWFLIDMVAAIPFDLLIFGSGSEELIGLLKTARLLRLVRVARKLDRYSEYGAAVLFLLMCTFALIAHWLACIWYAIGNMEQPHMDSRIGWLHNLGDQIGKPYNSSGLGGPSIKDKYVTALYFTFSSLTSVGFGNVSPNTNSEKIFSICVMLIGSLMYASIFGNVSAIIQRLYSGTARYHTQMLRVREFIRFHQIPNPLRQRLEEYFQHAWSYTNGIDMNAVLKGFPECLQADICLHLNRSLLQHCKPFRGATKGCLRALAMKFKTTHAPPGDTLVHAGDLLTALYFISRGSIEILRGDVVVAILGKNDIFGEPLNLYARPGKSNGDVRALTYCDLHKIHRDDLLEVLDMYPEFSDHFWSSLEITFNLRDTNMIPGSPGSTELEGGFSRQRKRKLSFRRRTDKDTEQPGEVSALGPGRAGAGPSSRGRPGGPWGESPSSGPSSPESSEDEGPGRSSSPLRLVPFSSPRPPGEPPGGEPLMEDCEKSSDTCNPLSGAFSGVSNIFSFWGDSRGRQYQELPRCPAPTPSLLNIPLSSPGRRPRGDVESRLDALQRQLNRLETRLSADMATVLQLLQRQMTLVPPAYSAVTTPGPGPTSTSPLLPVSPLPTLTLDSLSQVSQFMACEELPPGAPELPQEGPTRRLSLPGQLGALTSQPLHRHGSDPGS
The compound, vehicle control and positive control were tested on hERG-transfected HEK293 cells. A human embryonic kidney cell line (HEK293) with a stable transfection of hERG (Zhou Z et al. Biophysical Journal 1998. 74, 230-241; McDonald T. V. et al, Nature 1997. 388, 289-292) was used (University of Wisconsin, Madison, USA). The cells were kept in culture in MEM (Minimum Essential Medium, Gibco) which was supplemented with (amounts indicated added to 500 ml MEM): 5 ml L-Glutamine-Penicillin-Streptomycin (Sigma), 50 ml Fetal Bovine serum (Bio-Whittaker), 5 ml Non-essential Amino Acids 100× (Gibco), 5 ml sodium pyruvate 100 mM (Gibco) and 4 ml geneticin 50 mg/ml (Gibco) using T175 flasks. The cells were incubated at 37° C. in 5% CO2 atmosphere (in air).
Cell Harvesting for Assay
Cells were harvested as described below using Accumax™ (Sigma) as the dissociating reagent. Cells were then resuspended in a mixture of 33% DMEM/F12 (Dulbecco's Modified Eagle Medium/Nutrient Mixture F-12—Sigma) media/67% extracellular physiological solution.
The flasks were washed twice carefully with ˜5-10 ml phosphate buffered saline (PBS) (Gibco™) containing 2 mM EDTA (Ethylenediaminetetraacetic acid) (Sigma). The cells were dissociated using ˜3 ml of Accumax™ (cell detachment solution) and incubated for ˜5 to 10 min. at 37° C. Cold external physiological solution (2-5 ml) was added and the flasks are incubated at ˜4° C. for 5-10 min. Then, the cell suspension in each flask was gently dissociated with a 5 ml pipette. The cell suspension was transferred to a low binding petri-dish (˜[…]). Each flask was washed with ˜additional 5 ml cold external physiological solution and this solution was also added to the petri-dish. The petri-dish was then incubated for another 5 to 10 minutes at ˜4° C. After another gentle dissociation of the cell suspension in the petri dish, the cells were transferred to a reservoir kept on an orbital shaker at 200 rpm at 16° C. Before experiments were performed, the cells recovered for ˜20 min.
A 10 mM solution of the compound was used and plated in a 384 well plate. Aliquots of the stock solutions are diluted with the recording solution (see section 3) using automated liquid handling (Biomek FXP; final DMSO concentration: 0.03 to 0.3%). A standard range of screening concentrations was used ranging from 1 μM to 30 μM.
A positive control (E-4031) was included within each run to evaluate the sensitivity of the assay.
External and Intracellular Solutions Used in the Experiments
In the table below the composition of the intracellular and external buffer solutions is shown in [mM] (“NMDG” means N-methyl-D-glucamine)
The whole cell patch clamp technique on transfected cells allows the study of ion-channels with no—or limited interference from other ion-channels. The effects of the compounds on the hERG current were studied with an automated planar patch clamp system, SyncroPatch 384PE (Obergrussberger et al, Journal of Laboratory Automation 2016. 21 (6). 779-793). All cells were recorded in the whole cell mode of the patch clamp technique. The module is incorporated in a liquid handling pipetting robot system, Biomek FXP, for application of cells and compounds, vehicle control and positive control.
The different concentrations of the compounds were applied in two cumulatively increasing concentrations for the compounds (1 μM and 10 μM, and 3 μM and 30 μM, respectively). The hERG current was determined as the maximal tail current at −30 mV and percent inhibition upon compound or vehicle and positive control addition was reported.
After cells are caught onto the individual holes of the recording chips using the chip fill solution, the seal is increased with the seal enhancer solution (increased [Ca^2+]; then the cells were washed twice with recording solution before using a pressure protocol to go into the whole cell mode. […]

Experiment [5] concerns MOLM14 cells. Briefly: Proliferation assay (spheroid growth, 8 days), MOLM14.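 Also: spheroid size read as confluence by live-cell imaging, compounds added at a range of concentrations with 0.3% DMSO, DMSO-treated wells = 0%, highest reference dose = low control.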 In kind it is cell-based, human. As to conditions: Homo sapiens, MOLM-14, […], MOLM14, 8 days; read-out: spheroid assay_OneTime MOLM14 IC50.
The subject of experiment [6] is OCI-AML3 cells. The experiment is described as follows: Proliferation assay (spheroid growth, 8 days), OCI-AML3. Conditions: Homo sapiens, OCI-AML-3, […], OCI-AML3, 8 days. The experiment is classed as cell-based, human. The procedure, abridged: as §1

Where a name gives a salt, the structure may show the parent alone.

Chain of menin/MLL (terbium chelate-labeled menin, FITC-MBM1 peptide) (O00255 other isoform, or with tags, fused parts or gaps): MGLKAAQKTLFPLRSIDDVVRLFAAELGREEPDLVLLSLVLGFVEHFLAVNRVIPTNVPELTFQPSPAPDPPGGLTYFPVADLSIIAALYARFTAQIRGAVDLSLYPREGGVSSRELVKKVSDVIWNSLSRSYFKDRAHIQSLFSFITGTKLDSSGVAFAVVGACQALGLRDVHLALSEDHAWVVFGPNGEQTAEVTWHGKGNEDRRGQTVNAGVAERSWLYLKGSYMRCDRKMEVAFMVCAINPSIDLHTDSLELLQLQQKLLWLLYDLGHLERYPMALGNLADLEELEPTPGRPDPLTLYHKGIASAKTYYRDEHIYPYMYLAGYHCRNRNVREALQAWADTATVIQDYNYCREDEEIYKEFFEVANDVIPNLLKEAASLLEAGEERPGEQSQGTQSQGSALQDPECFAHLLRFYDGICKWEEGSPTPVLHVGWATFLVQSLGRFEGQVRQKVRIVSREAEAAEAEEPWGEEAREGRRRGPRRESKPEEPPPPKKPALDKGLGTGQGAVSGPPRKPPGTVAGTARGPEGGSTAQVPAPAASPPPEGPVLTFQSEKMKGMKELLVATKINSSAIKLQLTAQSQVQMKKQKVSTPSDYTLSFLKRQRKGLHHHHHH

Broadly, the IC50 is the concentration at which inhibition is half-maximal. With `CCN(C(=O)c1cc(F)ccc1Oc1nncnc1N1CCC2(C1)CN([C@H](CCN(C)C)C(C)C)C2)C(C)C` (single isomer, unassigned) [Compound 223, (*R)-2-((5-(2-(1-(dimethylamino)-4-methylpentan-3-yl)-2,6-diazaspiro[3.4]octan-6-yl)-1,2,4-triazin-6-yl)oxy)-N-ethyl-5-fluoro-N-isopropylbenzamide fumarate], the IC50 in experiment [1] is more than 15 µM; in experiment [2] it was 200 nM; in experiment [3], 0.4 nM; in experiment [4], more than 30.2 µM; in experiment [5], 180 nM; in experiment [6], 990 nM.
`CCN(C)CCC[C@H](C(C)C)N1CC2(CCN(c3ncnnc3Oc3ccc(F)cc3C(=O)N(CC)C(C)C)C2)C1` (single isomer, unassigned) [Compound 132, (*R)—N-ethyl-2-((5-(2-(6-(ethyl(methyl)amino)-2-methylhexan-3-yl)-2,6-diazaspiro[3.4]octan-6-yl)-1,2,4-triazin-6-yl)oxy)-5-fluoro-N-isopropylbenzamide fumarate]: the IC50 in experiment [1] is 10.4 µM; in experiment [2], 15 nM; in experiment [3], 0.11 nM; in experiment [4] it was more than 30.2 µM; in experiment [5], 33 nM; in experiment [6] it was 190 nM.
Regarding `CCN(C(=O)c1cc(F)ccc1Oc1nncnc1N1CCC2(C1)CN([C@H](CCCN(C)CCN(C)C(C)=O)C(C)C)C2)C(C)C` [Compound 148, (R)-N-ethyl-5-fluoro-N-isopropyl-2-((5-(2-(2-methyl-6-(methyl(2-(N-methylacetamido)ethyl)amino)hexan-3-yl)-2,6-diazaspiro[3.4]octan-6-yl)-1,2,4-triazin-6-yl)oxy)benzamide fumarate], the half-inhibitory concentration (IC50) in experiment [1] is more than 15 µM; in experiment [2] it was 60 nM; in experiment [3] it was 0.35 nM; in experiment [4] it was 12.3 µM; in experiment [5], 41 nM; in experiment [6] it was 340 nM.
Regarding `CCN(C(=O)c1cc(F)ccc1Oc1nncnc1N1CCC2(C1)CN([C@H](CCNCCOC)C(C)C)C2)C(C)C` (single isomer, unassigned) [Compound 227, (*R)—N-ethyl-5-fluoro-N-isopropyl-2-((5(2-(1-((2-methoxyethyl)amino)-4-methylpentan-3-yl)-2,6-diazaspiro[3.4]octan-6-yl)-1,2,4-triazin-6-yl)oxy)benzamide fumarate], the IC50 in experiment [1] is more than 15 µM; in experiment [2] it was 76 nM; in experiment [3], 0.15 nM; in experiment [4], more than 30.2 µM; in experiment [5], 46 nM; in experiment [6], 130 nM.
As for `CC(C)[C@H](CCCN(C)CCC(=O)N(C)C)N1CC2(CCN(c3ncnnc3Oc3ccc(F)cc3C(=O)N(C(C)C)C(C)C)C2)C1` (single isomer, unassigned) [Compound 146, (*S)-2-((5-(2-(6-((3-(dimethylamino)-3-oxopropyl)(methyl)amino)-2-methylhexan-3-yl)-2,6-diazaspiro[3.4]octan-6-yl)-1,2,4-triazin-6-yl)oxy)-5-fluoro-N,N-diisopropylbenzamide fumarate], the IC50 in experiment [1] is more than 15 µM; in experiment [2] it was 440 nM; in experiment [3], 0.081 nM; in experiment [4] it was more than 30.2 µM; in experiment [5] it was 320 nM; in experiment [6], 1790 nM.

For the origin of these results see US12473295B2, “Substituted straight chain spiro derivatives” (Janssen Pharmaceutica NV, priority 2019, dated 2025).
